From PMC2749132 (The Journal of Biological Chemistry, 2009)

Target: T1, MBP-MtHPS (MtHPS, HPS, halimadienyl-diphosphate synthase, Rv3377c) (Mycobacterium tuberculosis, UniProt O50406)
T1 sequence (O50406 1-501): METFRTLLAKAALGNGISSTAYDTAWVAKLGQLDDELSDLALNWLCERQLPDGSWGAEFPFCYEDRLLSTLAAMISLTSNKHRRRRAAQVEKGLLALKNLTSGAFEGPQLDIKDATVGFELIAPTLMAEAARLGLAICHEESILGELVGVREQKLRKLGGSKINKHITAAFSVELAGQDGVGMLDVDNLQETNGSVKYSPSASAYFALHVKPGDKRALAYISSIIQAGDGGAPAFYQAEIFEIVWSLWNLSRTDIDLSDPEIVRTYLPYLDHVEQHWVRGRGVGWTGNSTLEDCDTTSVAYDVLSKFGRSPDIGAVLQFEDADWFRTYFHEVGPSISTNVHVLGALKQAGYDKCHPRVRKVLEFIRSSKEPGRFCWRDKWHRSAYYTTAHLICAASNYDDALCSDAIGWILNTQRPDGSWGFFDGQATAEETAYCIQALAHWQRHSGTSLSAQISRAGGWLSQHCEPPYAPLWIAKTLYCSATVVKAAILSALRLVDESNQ
Assay: GC-FID conversion of GGPP to HPP, substrate inhibition equation
Format: biochemical
Details: 0.1 mM Mg2+, pH 7.75, 25 nM enzyme, 1 min

## CC(C)=CCC/C(C)=C/CC/C(C)=C/CC/C(C)=C/COP(=O)(O)OP(=O)(O)O [1a, GGPP]
  Ki: 18 ± 6 µM
